Data published in patent publication US20070185176A1, “Heparanase inhibitors and uses thereof” (Insight Bioharmaceuticals Ltd., priority 2004, published 2007).

Target: T1, human recombinant heparanase (h-hpa) (Homo sapiens, UniProt Q9Y251)
T1 sequence (Q9Y251 158-543 limits assumed): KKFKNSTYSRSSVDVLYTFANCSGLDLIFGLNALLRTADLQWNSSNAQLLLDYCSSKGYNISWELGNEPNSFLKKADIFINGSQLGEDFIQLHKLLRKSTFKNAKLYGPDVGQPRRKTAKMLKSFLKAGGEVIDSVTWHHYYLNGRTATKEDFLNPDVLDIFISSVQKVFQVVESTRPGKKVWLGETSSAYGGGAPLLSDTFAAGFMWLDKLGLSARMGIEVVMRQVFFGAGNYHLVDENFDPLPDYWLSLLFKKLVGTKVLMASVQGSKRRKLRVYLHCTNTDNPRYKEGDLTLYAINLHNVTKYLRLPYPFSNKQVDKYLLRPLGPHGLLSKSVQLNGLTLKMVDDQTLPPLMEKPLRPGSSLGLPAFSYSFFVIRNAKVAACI
T1 sequence (Q9Y251 36-109 limits assumed): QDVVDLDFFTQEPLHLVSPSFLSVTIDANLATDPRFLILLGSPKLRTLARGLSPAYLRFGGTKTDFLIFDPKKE
Assay: In vitro dimethylmethylene blue (DMB) assay for heparanase activity
Method: (a) In Vitro Dimethylmethylene Blue (DMB) Assay for Heparanase Activity
Heparin Sepharose CL-6B beads were added up to the top of the wells of a multiscreen column loader (Millipore). A 96-well multiscreen plate containing 0.65 μm hydrophilic, low protein binding, Durapore membrane (Millipore) was placed, upside down, on top of the multiscreen column loader. The column loader and the multiscreen plate were held together, turned over, and the beads were uniformly transferred from the column loader to the multiscreen plate (Millipore, MADVM 650). Double-distilled water (DDW) was then added to the beads, which were allowed to swell for one minute, and then washed (three times) with DDW under vacuum. Heparin concentration was estimated to be 10 μM/well.
To each well, phosphate-buffered saline (PBS) containing 1% bovine serum albumin (BSA; 70 μl/well) and DMB (32 mg of DMB were dissolved in 5 ml ethanol, diluted to 1 liter with formate buffer containing 4 g sodium formate and 4 ml formic acid; 120 μl/well) were added. Color was developed after 5 minutes, and the absorbance of the samples was determined using a microplate reader (Spectra Max, Molecular Devices) at 530 nm with 570 nm as reference. The absorbance correlated to heparanase activity. As a control, heparanase was added to the heparin Sepharose swollen beads in the multiscreen plate and the heparanase reaction products were filtered immediately thereafter and the absorbance of these control samples was subtracted from all other samples.
The cell extracts were centrifuged and resuspended in 20 mM phosphate citrate buffer, pH 5.4 containing 50 mM NaCl. The cells were lysed by three cycles of freezing and thawing. The cell lysates were centrifuged (10000×g for 5 min), supernatants were collected and then assayed for heparanase activity using the DMB assay.
The partially purified human recombinant heparanase or the crude cell extracts expressing either human or mouse recombinant heparanase were added for a 3-hour incubation and the reaction continued as described above. Absorbance of the developing color was measured as described above.

SMILES | IC50 [nM]
CCCCCCCCCCCCCCCCCC(=O)Nc1ccc(C(=O)NC2=NN(c3ccc(Oc4ccccc4)c(S(=O)(=O)O)c3)C(=O)C2/N=N/c2ccc(NS(=O)(=O)c3ccc(C)cc3)cc2)cc1 (stereo not shown) [Compound 27] | 270
CCCCCCCCCCCCCCCCCCN(C)c1ccc(S(=O)(=O)O)cc1NC(=O)c1cc(/N=N/c2cccc(NS(C)(=O)=O)c2)c2ccccc2c1O [Compound 47] | 250
CCCCCCCCCCCCCCCCCC(=O)NC1=NN(c2ccc(Oc3ccccc3)c(S(=O)(=O)O)c2)C(=O)C1/N=N/c1ccc(O)cc1Cl (stereo not shown) [Compound 69] | 180
CCCCCCCCCCCCCCCC(=O)OC[C@H](O)C1OC(=O)C(O)=C1O (stereo partly shown) [Compound 78] | 9000
CCCCCCCCCCNCC(O)Cn1c2ccc(Cl)cc2c2cc(Cl)ccc21 (stereo not shown) [Compound 68] | 6800
CCCCCCCCCCCC(=O)NC1=NN(c2ccc(Oc3ccccc3)c(S(=O)(=O)O)c2)C(=O)C1 [Compound 71] | 2650
CCCCCCCCCCCCCCCCCC1=Nn2c(nc3cc(S(=O)(=O)O)ccc32)C1S(=O)(=O)O (stereo not shown) [Compound 35] | 1340
CCCCCCCCCCCCCCCCCCNCC(O)Cn1c2ccc(Br)cc2c2cc(Br)ccc21 (stereo not shown) [Compound 91] | 15000
CCCCCCCCCCCCCCCCCC1=NN(c2ccc(Oc3ccccc3)c(S(=O)(=O)O)c2)C(=O)C1/N=N/c1cccc(C(=O)O)c1 (stereo not shown) [Compound 11] | 180
CCCCCCCCCCCC1OC1CCCCC(=O)On1nnc2ccccc2c1=O (stereo not shown) [Compound 99] | 16000
CCCCCCCCCCCCCCCCCCN(C)c1ccc(C(=O)O)cc1NC(=O)c1cc(/N=N/c2cc(C(=O)O)ccc2O)c2ccccc2c1O [Compound 50] | 4500
CCCCCCCCCCCC(Cl)C(O)CCCCC(=O)Nc1cc(C(=O)O)ccc1Oc1cc(C(=O)O)cc(C(=O)O)c1 (stereo not shown) [Compound 93] | 9150
CCCCCCCCCCCCCCCCCCn1c(C)nc2cc(S(=O)(=O)O)ccc21 [Compound 73] | 1400
CCCCCCCCCCCCCCCCCCN(C)c1ccc(S(=O)(=O)O)cc1NC(=O)c1cc(/N=N/c2cc(OC)c(O)cc2Cl)c2ccccc2c1O [Compound 55] | 430
CCCCCCCCCCCCCCCCCC1=NN(c2ccc(Oc3ccccc3)c(S(=O)(=O)O)c2)C(=O)C1Br (stereo not shown) [Compound 6] | 250
CCCCCCCCCCCCCCCCCCOc1ccc(S(=O)(=O)N/N=C2\N(CC)c3ccccc3C2(C)C)cc1C(=O)O [Compound 48] | 950
CCCCCCCCCCCCCCCCCCN(C)c1ccc(S(=O)(=O)O)cc1NC(=O)c1cc(/N=N/c2cccc(NS(=O)(=O)c3ccccc3)c2)c2ccccc2c1O [Compound 33] | 210
CCCCCCCCCCCC1OC1CCCCC(=O)NC1=NN(c2ccc(Oc3ccccc3)c(S(=O)(=O)O)c2)C(=O)C1 (stereo not shown) [Compound 100] | 270
CCCCCCCCCCCCCCCCCCOc1ccc(S(=O)(=O)O)cc1NC(=O)c1cc(/N=N/c2ccccc2C(=O)O)c2ccccc2c1O [Compound 49] | 2700
CCCCCCCCCCCCCCCCn1c(/N=C/c2c(O)ccc3cc([N+](=O)[O-])ccc23)nc2ccccc21 [Compound 57] | 7800
CCCCCCCCCCCCCCCCCCNC(=O)C1CC(=O)N(c2ccc(Oc3ccc(C(N)=O)cc3)c(S(=O)(=O)O)c2)C1 (stereo not shown) [Compound 106, 2-(4-amido-phenoxy)-5-(4-octadecyl-carbamoyl-2-oxo-pyrrolidin-1-yl)-benzene sulfonic acid] | 300
CCCCCCCCCCCC1OC1CCCCC(=O)Nc1cc(C(=O)O)ccc1Oc1cc(C(N)=O)cc(C(N)=O)c1 (stereo not shown) [Compound 96] | 1600
CCCCCCCCCCCCCCCCCC1=NN(c2ccc(Oc3ccccc3)c(S(=O)(=O)O)c2)C(=O)C1/N=N/c1ccc(OC)cc1 (stereo not shown) [Compound 7] | 240
CCCCCCCCCCCCCCCCCCOc1ccccc1C(=O)CC(=O)Nc1cc(NS(=O)(=O)c2cc(C(=O)O)cc(C(=O)O)c2)ccc1Cl [Compound 64] | 290
CCCCCCCCCCC/C=C\CCCCC(=O)Nc1cc(C(=O)O)ccc1Oc1cc(C(=O)O)cc(C(=O)O)c1 [Compound 86] | 2000
